This is an account of results in US10828315B2 (Madrigal Pharmaceuticals, Inc., priority 2013, dated 2020).

Molecules are shown by their SMILES. Where only a bound is given, the exact number is not on record here.

The IC50 is the concentration needed to halve the response being measured. A high value points to weaker potency.

The first test relates to HER2. Description: HER2 degradation assay with BT-474 cell line (Example 12, FACS). It counts as cell-based, human.
Conditions: not given
The text has this:
HER2 has emerged as a key target for anticancer drugs due to its intrinsic involvement in the phosphatidylinositol-3-kinase-Akt/protein kinase B (PI3K-Akt) and the mitogen-activated protein kinase (MAPK) pathways, both of which suppress apoptosis and promote tumor cell survival, gene transcription, angiogenesis, cellular proliferation, migration, mitosis, and differentiation. The degradation of HER2 is a measure of efficacy of anticancer therapeutics that target Hsp90. Accordingly, the SDC-TRAP molecules of the invention that comprise a binding moiety that binds Hsp90 were tested in the following HER2 degradation assay.
BT-474 cells (human breast cancer cell line ATCC HTB-20) were obtained from ATCC and seeded into 12-well tissue culture plates at 0.2×10^6/1.8 mL/well. […] Each test compound was titrated in 4-fold dilutions from 5 μM to 78 nM with DMSO and 200 μL of the titration was added to each well of the cell plate. The DMSO final concentration was 0.2%. Cells were incubated overnight at 37° C. in 5% CO2.
Media was decanted from the plate, cells were washed 1× in PBS. 400 μL trypsin (EDTA) per well was added, and the cells were incubated for 2 to 3 minutes. Cells were collected into FACS tubes containing 1 ml culture medium to neutralize the trypsin and were centrifuged for 5 minutes at 1200 rpm. Supernatant was decanted and the cells were resuspended in 5 μL FITC (anti HER2/nu)/200 μL staining buffer (1×PBS+1% FBS+0.05% Sodium Azide)/tube. Controls were 5 μL IgG isotype control and staining buffer only. Tubes were incubated for 30 minutes in the dark at room temperature. 1 mL staining buffer was added to each tube and the tubes were centrifuged for 6 minutes at 1200 rpm. The supernatant was decanted and 300 μL staining buffer was added to each tube, which was store at 4° C. fpr FACS (cytometer) analysis. The cytometer readout was normalized and the potency of each compound is evaluated with IC50 calculated with XLfit™ software.
`CCc1c2c(nc3ccc(OC(=O)N4CCN(c5ccc(-n6c(O)nnc6-c6cc(C(C)C)c(O)cc6O)cn5)CC4)cc13)-c1cc3c(c(=O)n1C2)COC(=O)[C@]3(O)CC` [SDC-TRAP-0090, (S)-4,11-diethyl-4-hydroxy-3,14-dioxo-3,4,12,14-tetrahydro-1H-pyrano[3′,4′:6,7]indolizino[1,2-b]quinolin-9-yl 4-(5-(3-(2,4-dihydroxy-5-isopropylphenyl)-5-hydroxy-4H-1,2,4-triazol-4-yl)pyridin-2-yl)piperazine-1-carboxylate] showed an IC50 of 4600 nM.

Turning to `CCc1c2c(nc3ccc(O)cc13)-c1cc3c(c(=O)n1C2)COC(=O)[C@@]3(CC)OC(=O)N1CCN(c2ccc(-n3c(O)nnc3-c3cc(C(C)C)c(O)cc3O)cn2)CC1` [SDC-TRAP-0091, (S)-4,11-diethyl-9-hydroxy-3,14-dioxo-3,4,12,14-tetrahydro-1H-pyrano[3′,4′:6,7]indolizino[1,2-b]quinolin-4-yl 4-(5-(3-(2,4-dihydroxy-5-isopropylphenyl)-5-hydroxy-4H-1,2,4-triazol-4-yl)pyridin-2-yl)piperazine-1-carboxylate], the IC50 was more than 5000 nM.

Turning to `CCc1c2c(nc3ccc(O)cc13)-c1cc3c(c(=O)n1C2)COC(=O)[C@@]3(CC)OC(=O)N1CCC(N2Cc3ccc(-n4c(O)nnc4-c4cc(C(C)C)c(O)cc4O)cc3C2)CC1` [SDC-TRAP-0092, (S)-4,11-diethyl-9-hydroxy-3,14-dioxo-3,4,12,14-tetrahydro-1H-pyrano[3′,4′:6,7]indolizino[1,2-b]quinolin-4-yl 4-(5-(3-(2,4-dihydroxy-5-isopropylphenyl)-5-hydroxy-4H-1,2,4-triazol-4-yl)isoindolin-2-yl)piperidine-1-carboxylate], the IC50 amounted to 4710 nM.

In turn, `CCc1c2c(nc3ccc(OC(=O)N4CCC(c5nc6cc(-n7c(O)nnc7-c7cc(C(C)C)c(O)cc7O)ccc6n5C)CC4)cc13)-c1cc3c(c(=O)n1C2)COC(=O)C3(O)CC` (stereo not drawn) [SDC-TRAP-0095, 4,11-diethyl-4-hydroxy-3,14-dioxo-3,4,12,14-tetrahydro-1H-pyrano[3′,4′:6,7]indolizino[1,2-b]quinolin-9-yl 4-(5-(3-(2,4-dihydroxy-5-isopropylphenyl)-5-hydroxy-4H-1,2,4-triazol-4-yl)-1-methyl-1H-benzo[d]imidazol-2-yl)piperidine-1-carboxylate] returned an IC50 of more than 5000 nM.

`CCc1c2c(nc3ccc(O)cc13)-c1cc3c(c(=O)n1C2)COC(=O)C3(CC)OC(=O)C1CCN(C(=O)Cc2ccc(-n3c(O)nnc3-c3cc(C(C)C)c(O)cc3O)cc2)CC1` (stereo not drawn) [SDC-TRAP-0097, 4,11-diethyl-9-hydroxy-3,14-dioxo-3,4,12,14-tetrahydro-1H-pyrano[3′,4′:6,7]indolizino[1,2-b]quinolin-4-yl 1-(2-(4-(3-(2,4-dihydroxy-5-isopropylphenyl)-5-hydroxy-4H-1,2,4-triazol-4-yl)phenyl)acetyl)piperidine-4-carboxylate] gave an IC50 of more than 5000 nM.

`CCNC(=O)c1nnc(-c2cc(C(C)C)c(O)cc2O)n1-c1ccc(CN2CCC(C(=O)N(C)CCC(=O)OC3(CC)C(=O)OCc4c3cc3n(c4=O)Cc4c-3nc3ccc(O)cc3c4CC)CC2)cc1` (stereo not drawn) [SDC-TRAP-0100, 4,11-Diethyl-9-hydroxy-3,14-dioxo-3,4,12,14-tetrahydro-1H-pyrano[3′,4′:6,7]indolizino[1,2-b]quinolin-4-yl 3-(1-(4-(3-(2,4-dihydroxy-5-isopropylphenyl)-5-(ethylcarbamoyl)-4H-1,2,4-triazol-4-yl)benzyl)-N-methylpiperidine-4-carboxamido)propanoate]: the IC50 came to 80 nM.

Turning to `CCc1c2c(nc3ccc(OC(=O)N4CCC(N5CCN(c6ccc(-n7c(O)nnc7-c7cc(C(C)C)c(O)cc7O)cc6)CC5)CC4)cc13)-c1cc3c(c(=O)n1C2)COC(=O)C3(O)CC` (stereo not drawn) [SDC-TRAP-0101, 4,11-diethyl-4-hydroxy-3,14-dioxo-3,4,12,14-tetrahydro-1H-pyrano[3′,4′:6,7]indolizino[1,2-b]quinolin-9-yl 4-(4-(4-(3-(2,4-dihydroxy-5-isopropylphenyl)-5-hydroxy-4H-1,2,4-triazol-4-yl)phenyl)piperazin-1-yl)piperidine-1-carboxylate], it took 280 nM to reach half-maximal inhibition (IC50).

`CCc1c2c(nc3ccc(O)cc13)-c1cc3c(c(=O)n1C2)COC(=O)C3(CC)OC(=O)C1CCN(C(=O)CN2CCN(c3ccc(-n4c(O)nnc4-c4cc(C(C)C)c(O)cc4O)cc3)CC2)CC1` (stereo not drawn) [SDC-TRAP-0111, 4,11-Diethyl-9-hydroxy-3,14-dioxo-3,4,12,14-tetrahydro-1H-pyrano[3′,4′:6,7]indolizino[1,2-b]quinolin-4-yl 1-(2-(4-(4-(3-(2,4-dihydroxy-5-isopropylphenyl)-5-hydroxy-4H-1,2,4-triazol-4-yl)phenyl)piperazin-1-yl)acetyl)piperidine-4-carboxylate] gave an IC50 of more than 5000 nM.

In the case of `CCc1c2c(nc3ccc(OC(=O)N(C)CCNC(=O)c4nnc(-c5cc(C(C)C)c(O)cc5O)n4-c4cccnc4)cc13)-c1cc3c(c(=O)n1C2)COC(=O)C3(O)CC` (stereo not drawn) [SDC-TRAP-0112, 4,11-Diethyl-4-hydroxy-3,14-dioxo-3,4,12,14-tetrahydro-1H-pyrano[3′,4′:6,7]indolizino[1,2-b]quinolin-9-yl (2-(5-(2,4-dihydroxy-5-isopropylphenyl)-4-(pyridin-3-yl)-4H-1,2,4-triazole-3-carboxamido)ethyl)(methyl)carbamate], the concentration for half-maximal inhibition (IC50) is more than 5000 nM.

In turn, `CC(C)c1cc(-c2nnc(O)n2-c2ccc(CN3CCN(C(=O)Oc4ccc5c(c4)C[C@@H](CCCCCCCCC[S+]([O-])CCCC(F)(F)C(F)(F)F)[C@@H]4[C@@H]5CC[C@]5(C)[C@@H](O)CC[C@@H]45)CC3)cc2)c(O)cc1O` (stereo partly drawn) [SDC-TRAP-0148, (7R,8R,9S,13S,14S,17S)-17-hydroxy-13-methyl-7-(9-((4,4,5,5,5-pentafluoropentyl)sulfinyl)nonyl)-7,8,9,11,12,13,14,15,16,17-decahydro-6H-cyclopenta[a]phenanthren-3-yl 4-(4-(3-(2,4-dihydroxy-5-isopropylphenyl)-5-hydroxy-4H-1,2,4-triazol-4-yl)benzyl)piperazine-1-carboxylate] showed a concentration for half-maximal inhibition (IC50) of 3040 nM.

Turning to `Cc1cc(C(=O)N2CCN(Cc3ccc(-n4c(O)nnc4-c4cc(C(C)C)c(O)cc4O)cc3F)CC2)cc(C)c1OC(=O)Nc1cccc2c1CN(C1CCC(=O)NC1=O)C2=O` (stereo not drawn) [SDC-TRAP-0168, 4-(4-(4-(3-(2,4-dihydroxy-5-isopropylphenyl)-5-hydroxy-4H-1,2,4-triazol-4-yl)-2-fluorobenzyl)piperazine-1-carbonyl)-2,6-dimethylphenyl (2-(2,6-dioxopiperidin-3-yl)-1-oxoisoindolin-4-yl)carbamate], 276 nM corresponded to half-maximal inhibition (IC50).

As for `CCNC(=O)c1nnc(-c2cc(C(C)C)c(O)cc2O)n1-c1ccc(Oc2ccc(C(=O)N(C)CCC(=O)OC3(CC)C(=O)OCc4c3cc3n(c4=O)Cc4c-3nc3ccc(O)cc3c4CC)cc2)cc1` (stereo not drawn) [SDC-TRAP-0169, 4,11-diethyl-9-hydroxy-3,14-dioxo-3,4,12,14-tetrahydro-1H-pyrano[3′,4′:6,7]indolizino[1,2-b]quinolin-4-yl 3-(4-(4-(3-(2,4-dihydroxy-5-isopropylphenyl)-5-(ethylcarbamoyl)-4H-1,2,4-triazol-4-yl)phenoxy)-N-methylbenzamido)propanoate], half-maximal inhibition (IC50) required 611 nM.

As to `CCNC(=O)c1nnc(-c2cc(C(C)C)c(O)cc2O)n1-c1ccc(C(=O)N2CCN(c3ccc(OC(=O)Nc4cccc5c4CN(C4CCC(=O)NC4=O)C5=O)c(OC)c3)CC2)cc1` (stereo not drawn) [SDC-TRAP-0173, 4-(4-(4-(3-(2,4-dihydroxy-5-isopropylphenyl)-5-(ethylcarbamoyl)-4H-1,2,4-triazol-4-yl)benzoyl)piperazin-1-yl)-2-methoxyphenyl (2-(2,6-dioxopiperidin-3-yl)-1-oxoisoindolin-4-yl)carbamate], the IC50 is 323 nM.

As to `CCNC(=O)c1nnc(-c2cc(C(C)C)c(O)cc2O)n1-c1ccc(C(=O)N2CCN(c3ccc(OC(=O)Nc4cccc5c4CN(C4CCC(=O)NC4=O)C5=O)c(C)c3)CC2)cc1` (stereo not drawn) [SDC-TRAP-0176, 4-(4-(4-(3-(2,4-dihydroxy-5-isopropylphenyl)-5-(ethylcarbamoyl)-4H-1,2,4-triazol-4-yl)benzoyl)piperazin-1-yl)-2-methylphenyl (2-(2,6-dioxopiperidin-3-yl)-1-oxoisoindolin-4-yl)carbamate], the IC50 is 178 nM.

Still in this test, the particulars now being: BT-474 cells, overnight.
The compound `CCOC(=O)c1nnc(-c2cc(C(C)C)c(O)cc2O)n1-c1ccc(CN2CCC(C(=O)N[C@H]3C[C@H](O[C@H]4C[C@](O)(C(=O)CO)Cc5c(O)c6c(c(O)c54)C(=O)c4c(OC)cccc4C6=O)O[C@@H](C)[C@H]3O)CC2)cc1` [SDC-TRAP-0142, ethyl-5-(2,4-dihydroxy-5-isopropylphenyl)-4-(4-((4-(((2S,3S,4S,6R)-3-hydroxy-2-methyl-6-(((1S,3S)-3,5,12-trihydroxy-3-(2-hydroxyacetyl)-10-methoxy-6,11-dioxo-1,2,3,4,6,11-hexahydrotetracen-1-yl)oxy)tetrahydro-2H-pyran-4-yl)carbamoyl)piperidin-1-yl)methyl)phenyl)-4H-1,2,4-triazole-3-carboxylate] displayed an IC50 of more than 10000 nM.
